The source of these data is PMC10282093, “Structural basis of α1A-adrenergic receptor activation and recognition by an extracellular nanobody” (Nature Communications, 2023).

“And” between values parts separate entries of the source, which are not always exact repeats. Equal entries are not always repeated.

The test has as its target T1, α1AAR (Homo sapiens, UniProt P35348).
T1 sequence (P35348 1-370): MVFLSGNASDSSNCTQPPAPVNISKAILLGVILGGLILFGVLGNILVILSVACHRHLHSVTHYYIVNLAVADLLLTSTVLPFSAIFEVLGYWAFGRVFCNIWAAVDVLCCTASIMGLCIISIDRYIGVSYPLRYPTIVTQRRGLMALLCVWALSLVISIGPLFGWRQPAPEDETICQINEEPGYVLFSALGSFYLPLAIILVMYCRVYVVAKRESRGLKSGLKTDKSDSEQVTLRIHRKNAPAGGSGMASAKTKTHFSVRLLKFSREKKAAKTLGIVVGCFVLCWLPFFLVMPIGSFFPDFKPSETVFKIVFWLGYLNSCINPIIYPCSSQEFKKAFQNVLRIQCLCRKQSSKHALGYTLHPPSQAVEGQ
The experiment in a line: [3H]prazosin radioligand binding, Sf9 membranes. Conditions: for [3H]prazosin binding: SupFig 5b, listed as Tam.

Protocol: After centrifugation, the pellet was homogenized in binding buffer and used as the membrane fraction in binding assays. […] Receptors were incubated for 1 h at room temperature with various concentrations of ligand in a total volume of 100 µl. After the reaction, the mixture was trapped on Whatman GF/B glass filters. Bound and free radioligands were separated by washing with ice-cold binding buffer. Radioactivity was measured on a MicroBeta2 liquid scintillation counter (PerkinElmer).

Take `CCOc1ccccc1OCCN[C@H](C)Cc1ccc(OC)c(S(N)(=O)=O)c1` [Tamsulosin, tamsulosin]: the “[3H]prazosin binding” value (Tam Log[M] -4) was 3.325% and 3.807% and 3.682%; the “[3H]prazosin binding” value (Tam Log[M] -5) was 5.496% and 6.839% and 6.881%; the “[3H]prazosin binding” value (Tam Log[M] -6) is 11.244% and 11.6216% and 10.1426%; the “[3H]prazosin binding” value (Tam Log[M] -7) was 16.0268% and 19.0266% and 22.7187%; the “[3H]prazosin binding” value (Tam Log[M] -8) was 68.1875% and 65.3346% and 66.6562%; the “[3H]prazosin binding” value (Tam Log[M] -9) was 89.8993% and 114.569% and 102.297%. In addition, the “[3H]prazosin binding” value (Tam Log[M] -10) was 91.4097% and 102.161% and 96.6541%; the “[3H]prazosin binding” value (Tam Log[M] -11) is 80.1028% and 92.7732% and 127.271%.

B1: Nb6: nanobody that engages the ICL3 of the inactive-state κ-opioid receptor (antibody, V domains shown)
VH: QVQLQESGGGLVQAGESLRLSCAASGTIFRLYDMGWYRRVSGNQRELVASITSGGSTKYGDSVKGRFTISRDNAKNTVYLQMSSLKPEDTAVYYCNAEYRTGIWEELLDGWGQGTQVTVSS
In the case of B1, the “Normalized [3H]prazosin-binding” value (with 5 μM Nb6) was 88.7285% and 103.574% and 107.698%.
